Experimental data from PubChem BioAssay (NCI).
“And” between values parts separate entries of the source, which are not always exact repeats. Equal entries are not always repeated.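 Each compound was tested at five concentrations against cells in 96-well plates for 48 hours. The concentration for 50% growth inhibition is given as GI50. TGI: total growth inhibition.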

What was measured:
Test in all cases: inhibition of tumour cell growth, NCI panel, 48 h
DLD-1 colon = test system: DLD-1 colon
DMS 273 small cell lung = test system: DMS 273 small cell lung
SNB-78 CNS = test system: SNB-78 CNS
DMS 114 small cell lung = test system: DMS 114 small cell lung
M19-MEL melanoma = test system: M19-MEL melanoma
NCI/ADR-RES ovarian = test system: NCI/ADR-RES ovarian
MDA-MB-435 = test system: MDA-MB-435
HS 578T breast = test system: HS 578T breast
BT-549 breast = test system: BT-549 breast
MDA-MB-231 breast = test system: MDA-MB-231 breast

SMILES | TGI (DLD-1 colon) | TGI (DMS 273 small cell lung) | TGI (SNB-78 CNS) | TGI (DMS 114 small cell lung) | TGI (M19-MEL melanoma) | further results
CCC[CH2][Sn]1([CH2]CCC)[O]CC(CN2CCCC2)[O]1 (stereo not drawn) | 32.7 µM | 30.8 µM | 37.4 µM | 27 µM | 29.4 µM | GI50 (DLD-1 colon): 16.1 µM; GI50 (DMS 273 small cell lung): 16.3 µM; GI50 (SNB-78 CNS): 11.4 µM; GI50 (DMS 114 small cell lung): 13 µM; GI50 (M19-MEL melanoma): 14.6 µM
COc1ccc(C(=O)C(C(=O)CCC(=O)Nc2cccc(Cl)c2)c2ccc(OC)cc2)cc1 (stereo not drawn) | > 100 µM | > 100 µM | – | – | > 100 µM | –
COc1cc2c(cc1OC)C(CC(=O)NN=C(C)C)NCC2 (stereo not drawn) | > 100 µM | > 100 µM | > 100 µM | > 100 µM | > 100 µM | –
N#CCN1C(=O)c2cccc3cc([N+](=O)[O-])cc(c23)C1=O | > 100 µM | > 100 µM | > 100 µM | > 100 µM | 44.5 µM | –
CCOC(=O)C1=C(C)N(NC(=O)Nc2ccccc2)C(=O)C1=P(c1ccccc1)(c1ccccc1)c1ccccc1 | > 100 µM | > 100 µM | – | > 100 µM | > 100 µM | –
COC1(OC)C2(Cl)C(Cl)=C(Cl)C1(Cl)C1C=CC=CC12 (stereo not drawn) | > 100 µM | > 100 µM | > 100 µM | > 100 µM | > 100 µM | –
Cc1cn(C2CC(O)C(CO)O2)c(=O)n2nnnc12 (stereo not drawn) | > 100 µM | > 100 µM | > 100 µM | > 100 µM | > 100 µM | –
Cc1nc(N)sc1C(=O)/C=C\c1ccc2c(c1)OCO2 | > 100 µM | > 100 µM | > 100 µM | > 100 µM | > 100 µM | –
CC1(C)C(=O)N(CCCCCCN2C(=O)C(C)(C)c3ccccc32)c2ccccc21 | – | > 100 µM | > 100 µM | 43.4 µM | 65.2 µM | –
O=C(O)C1OC(n2cc(F)c(=O)[nH]c2=O)CC1O (stereo not drawn) | > 100 µM | > 100 µM | > 100 µM | > 100 µM | > 100 µM | TGI (NCI/ADR-RES ovarian): > 100 µM; TGI (MDA-MB-435): > 100 µM; TGI (HS 578T breast): > 100 µM; TGI (BT-549 breast): > 100 µM; TGI (MDA-MB-231 breast): > 100 µM
O=C1C2C3C=C4c5ccccc5N(c5ccccc5)C4(C2C(=O)N1Cc1ccccc1)C1C(=O)N(Cc2ccccc2)C(=O)C31 (stereo not drawn) | > 100 µM | – | > 100 µM | > 100 µM | > 100 µM | –
COc1cc(C(C)O)c[n+](CCc2c[nH]c3ccccc23)c1 (stereo not drawn) | > 100 µM | > 100 µM | – | > 100 µM | > 100 µM | –
NC(N)=N/N=C(\c1nc2ccc([N+](=O)[O-])cc2[nH]c1=O)C(O)c1ccc([N+](=O)[O-])cc1 (stereo not drawn) | > 100 µM | > 100 µM | > 100 µM | 75 µM | > 100 µM | –
CS/C(N)=N\NC(=O)CCC(=O)Nc1ccccc1C(F)(F)F | > 100 µM | > 100 µM | > 100 µM | > 100 µM | > 100 µM | –
CC(C)(C)c1ccc2c(c1)S(=O)(=O)Nc1ccccc1NS(=O)(=O)c1cc(C(C)(C)C)ccc1OCCOCCOCCO2 | > 100 µM | > 100 µM | > 100 µM | > 100 µM | > 100 µM | –
Nn1c(=O)n(Cc2ccccc2)n(-c2ccccc2)c1=O | > 100 µM | > 100 µM | > 100 µM | – | – | –
Cc1cccc(NC(=O)/C(=N\NC(C)(C)C)C2NC(=S)NC2=O)c1C (stereo not drawn) | > 100 µM | – | > 100 µM | – | > 100 µM | –
COc1cccc2c1C(=O)c1c(O)c3c(c(O)c1C2=O)C[C@@](O)(C(C)=O)C[C@@H]3OC1OC(C)C(O)C(N)C1Br (stereo partly drawn) | 0.175 µM and 0.607 µM | 0.268 µM and 0.151 µM | 3.09 µM | 0.428 µM and 0.212 µM | 0.364 µM and 0.328 µM | GI50 (DLD-1 colon): 0.0679 µM; TGI (MDA-MB-435): 1.13 µM; TGI (BT-549 breast): 0.913 µM; TGI (MDA-MB-231 breast): 1.72 µM; GI50 (DMS 114 small cell lung): 0.0233 µM
Cc1cc(Cl)ccc1N=C1NC(=O)C(CC(=O)Nc2ccc([N+](=O)[O-])cc2[N+](=O)[O-])S1 (stereo not drawn) | > 100 µM | 82.7 µM | 73.6 µM | 49.9 µM | 75.4 µM | –
CCOC(=O)CC1(C(=O)OCC)c2[nH]c3ccccc3c2CCN1Cc1ccccc1 (stereo not drawn) | 89.4 µM | 32 µM | 81.2 µM | 38.6 µM | 27.6 µM | –
Cc1ccn2c(c1)nc1nc3ccccc3nc12 | > 100 µM | > 100 µM | > 100 µM | > 100 µM | > 100 µM | –
COC(=O)C1=C(C)N(NC(=O)OC(C)(C)C)C(=O)C1=P(c1ccccc1)(c1ccccc1)c1ccccc1 | > 100 µM | > 100 µM | > 100 µM | > 100 µM | > 100 µM | –
CC1CC[C@]2(C(=O)O)CCC3(C)C(=CC(=O)C4[C@@]5(C)CCC(=O)C(C)(C)C5CC[C@]43C)[C@@H]2[C@H]1C (stereo partly drawn) | – | – | > 100 µM | 63.1 µM | 71.3 µM | –
